Experimental data taken from US20230295162A1 (EÖTVÖS LORÁND TUDOMÁNYEGYETEM, priority 2020, published 2023).
Read-outs that look alike come from different tables or passages of the source.

Experiments:
[1] = system: FaDu (pharynx, squamous cell carcinoma) cells; experiment: Cell viability assay, CellTiter-Glo (Example 21); format: cell-based, human; conditions: 72 h treatment
Procedure, shortened: (§1)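 Seeding density per line: Panc-1 750, FaDu 1000, Detroit 562 and MDA-MB-453 1500 cells/well. Viability after treatment read by CellTiter-Glo luminescence; dose-response curves fitted by four-parameter variable-slope non-linear regression.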

[2] = system: Panc-1 (pancreas, carcinoma) cells; experiment: Cell viability assay, CellTiter-Glo (Example 21); format: cell-based, human; conditions: 72 h treatment
Procedure, shortened: as §1

[3] = system: SCC-25 (tongue, squamous cell carcinoma) cells; experiment: Cell viability assay, CellTiter-Glo (Example 21); format: cell-based, human; conditions: 72 h treatment
Procedure, shortened: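 SCC-25 tongue squamous cell carcinoma cells were seeded at 1000 cells/well in flat-bottomed white 96 well plates, treated with compound, and viability was then determined with the CellTiter-Glo luminescent assay (Promega) following the manufacturer's instructions. Luminescence was read on a BioTek Synergy 2 Multi-Mode Reader.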

[4] = system: LNCaP (prostate, carcinoma) cells; experiment: Cell viability assay, CellTiter-Glo (Example 21); format: cell-based, human; conditions: 72 h
Procedure, shortened: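 LNCaP prostate carcinoma cell viability was assessed with the CellTiter-Glo® luminescent assay (Promega), following the manufacturer's instructions. Cells were seeded at 1500 cells/well into flat-bottomed white 96 well plates, treated, and then luminescence was read on a BioTek Synergy 2 Multi-Mode Reader. Dose-response curves were fitted in GraphPad Prism 8.4.2 by four-parameter variable-slope non-linear regression.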

[5] = system: MIA PaCa-2 (pancreas, carcinoma) cells; experiment: Cell viability assay, CellTiter-Glo (Example 21); format: cell-based, human; conditions: 72 h treatment
Procedure, shortened: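 MIA PaCa-2 pancreatic carcinoma cells were seeded at 1000 cells/well in flat-bottomed white 96 well plates (BRANDplates®, cat. no.: 781965) and treated with compound. Viability was then determined with the CellTiter-Glo® luminescent cell viability assay (Promega) following the manufacturer's instructions, with luminescence read on a BioTek Synergy 2 Multi-Mode Reader.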

[6] = system: DU 145 (prostate, carcinoma) cells; experiment: Cell viability assay, CellTiter-Glo (Example 21); format: cell-based, human; conditions: 72 h
Procedure, shortened: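 DU 145 cancer cell viability was assessed with the CellTiter-Glo® luminescent assay (Promega, Madison, WI, USA), following the manufacturer's instructions. Cells were seeded at 1000 cells/well in flat-bottomed white 96 well plates, and after treatment luminescence was read on a BioTek Synergy 2 Multi-Mode Reader.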

[7] = system: Capan-1 (pancreas, adenocarcinoma) cells; experiment: Cell viability assay, CellTiter-Glo (Example 21); format: cell-based, human; conditions: 72 h treatment
Procedure, shortened: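 Capan-1 cells were seeded at 1000 cells/well in flat-bottomed white 96 well plates (BRANDplates®), with density optimized for cell size and growth rate. Following compound treatment, viability was measured with the CellTiter-Glo® luminescent assay (Promega) per the manufacturer's instructions, reading luminescence on a BioTek Synergy 2 Multi-Mode Reader.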

[8] = system: EBC-1 (lung, squamous cell carcinoma) cells; experiment: Cell viability assay, CellTiter-Glo (Example 21); format: cell-based, human; conditions: 72 h treatment
Procedure, shortened: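 EBC-1 lung squamous cell carcinoma cells were seeded at 1000 cells/well in flat-bottomed white 96 well plates. After compound treatment, viability was measured with the CellTiter-Glo luminescent assay following the manufacturer's instructions, and luminescence was read on a BioTek Synergy 2 Multi-Mode microplate reader.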

[9] = system: MDA-MB-453 (breast, carcinoma) cells; experiment: Cell viability assay, CellTiter-Glo (Example 21); format: cell-based, human; conditions: 72 h treatment
Procedure, shortened: as §1

[10] = system: Detroit 562 (pharynx, carcinoma) cells; experiment: Cell viability assay, CellTiter-Glo (Example 21); format: cell-based, human; conditions: 72 h treatment
Procedure, shortened: as §1

[11] = system: MDA-MB-231 (breast, adenocarcinoma) cells; experiment: Cell viability assay, CellTiter-Glo (Example 21); format: cell-based, human; conditions: 72 h treatment
Procedure, shortened: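 MDA-MB-231 breast adenocarcinoma cells were seeded at 1500 cells/well in flat-bottomed white 96 well plates (BRANDplates®, cat. no.: 781965). Following compound exposure, viability was assessed with the CellTiter-Glo® luminescent assay (Promega) following the manufacturer's protocol, and luminescence was read on a BioTek Synergy 2 Multi-Mode Reader.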

[12] = system: PC-3 (prostate, adenocarcinoma) cells; experiment: Cell viability assay, CellTiter-Glo (Example 21); format: cell-based, human; conditions: 72 h treatment
Procedure, shortened: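 PC-3 prostate adenocarcinoma cells were seeded at 1000 cells/well in flat-bottomed white 96 well plates and treated with compounds. Viability was then determined with the CellTiter-Glo® luminescent assay (Promega) following the manufacturer's instructions, with luminescence read on a BioTek Synergy 2 Multi-Mode Reader.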

[13] = system: Fadu cell line; experiment: Additional in vitro IC50 tests (Table 3); format: cell-based; conditions: Homo sapiens
Procedure, shortened: (§2)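 Cells at 1000/well, viability by CellTiter-Glo luminescence after compound treatment, as % of untreated control. IC50 from variable-slope log(inhibitor) vs response nonlinear regression.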

[14] = system: EBC-1 cell line; experiment: Additional in vitro IC50 tests (Table 3); format: cell-based; conditions: Homo sapiens
Procedure, shortened: as §2

[15] = system: SCC-25 cell line; experiment: Additional in vitro IC50 tests (Table 3); format: cell-based; conditions: Homo sapiens
Procedure, shortened: as §2

[16] = system: H2228 cell line; experiment: Additional in vitro IC50 tests (Table 3); format: cell-based; conditions: Homo sapiens, NCI-H2228
Procedure, shortened: as §2

[17] = system: Detroit 562 cell line; experiment: Additional in vitro IC50 tests (Table 3); format: cell-based; conditions: Homo sapiens
Procedure, shortened: as §2

[18] = system: Panc-1 human cell line; experiment: Cytotoxicity on Panc-1, xCELLigence SP, IC50 after 24 h, 48 h, 72 h and 96 h (Example 22)
[19] = system: Panc1 pancreatic cancer cell line; experiment: CellTiter-Glo IC50 (Example 19); format: cell-based; conditions: Homo sapiens, PANC-1, 72 h
Procedure, shortened: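 Cells were seeded at 1000 cells/well and kept at 37° C in 5% CO2. After compound treatment, medium was removed, CellTiter-Glo reagent added and luminescence read. Viability was expressed as % of untreated control, and IC50 came from variable-slope log(inhibitor) vs response non-linear regression.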

## O=C1C2=C(CCN(Cc3cc(F)cc(F)c3)C2)N2CCN=C2N1Cc1ccc(Cl)cc1 [I/124, 4-(4-Chlorobenzyl)-7-(3,5-difluorobenzyl)-2,4,6,7,8,9-hexahydroimidazo[1,2-a]pyrido[3,4-e]pyrimidin-5(1H)-one]
[1]; 3.7 nM
  FaDu (pharynx, squamous cell carcinoma) cell viability (% of control): 45.6 ± 20.7 % of control
[1]; 11.1 nM
  FaDu (pharynx, squamous cell carcinoma) cell viability (% of control): 26.1 ± 6.2 % of control
[1]; 100 nM
  FaDu (pharynx, squamous cell carcinoma) cell viability (% of control): 24.5 ± 4.6 % of control
[1]; 300 nM
  FaDu (pharynx, squamous cell carcinoma) cell viability (% of control): 24.7 ± 5.0 % of control
[2]; 3.7 nM
  Panc-1 (pancreas, carcinoma) cell viability (% of control): 99.7 ± 3.0 % of control
[2]; 11.1 nM
  Panc-1 (pancreas, carcinoma) cell viability (% of control): 56.9 ± 0.2 % of control
[2]; 100 nM
  Panc-1 (pancreas, carcinoma) cell viability (% of control): 50.9 ± 0.3 % of control
[2]; 300 nM
  Panc-1 (pancreas, carcinoma) cell viability (% of control): 51.2 ± 0.4 % of control
[3]; 3.7 nM
  SCC-25 (tongue, squamous cell carcinoma) cell viability (% of control): 47.2 ± 5.8 % of control
[3]; 11.1 nM
  SCC-25 (tongue, squamous cell carcinoma) cell viability (% of control): 34.3 ± 2.0 % of control
[3]; 100 nM
  SCC-25 (tongue, squamous cell carcinoma) cell viability (% of control): 37.5 ± 1.4 % of control
[3]; 300 nM
  SCC-25 (tongue, squamous cell carcinoma) cell viability (% of control): 42.3 ± 5.2 % of control
[4]; 3.7 nM
  LNCaP cell viability: 20.8 ± 2.0 % of control
[4]; 11.1 nM
  LNCaP cell viability: 13.3 ± 1.6 % of control
[4]; 100 nM
  LNCaP cell viability: 12.7 ± 0.8 % of control
[4]; 300 nM
  LNCaP cell viability: 13.0 ± 0.7 % of control
[5]; 3.7 nM
  MIA PaCa-2 (pancreas, carcinoma) cell viability (% of control): 33.5 ± 12.1 % of control
[5]; 11.1 nM
  MIA PaCa-2 (pancreas, carcinoma) cell viability (% of control): 18.9 ± 7.1 % of control
[5]; 100 nM
  MIA PaCa-2 (pancreas, carcinoma) cell viability (% of control): 18.7 ± 7.1 % of control
[5]; 300 nM
  MIA PaCa-2 (pancreas, carcinoma) cell viability (% of control): 18.0 ± 7.3 % of control
[6]; 3.7 nM
  DU 145 cell viability: 10.0 ± 1.4 % of control
[6]; 11.1 nM
  DU 145 cell viability: 7.0 ± 1.1 % of control
[6]; 100 nM
  DU 145 cell viability: 8.0 ± 1.0 % of control
[6]; 300 nM
  DU 145 cell viability: 7.7 ± 1.8 % of control
[7]; 3.7 nM
  Capan-1 (pancreas, adenocarcinoma) cell viability (% of control): 88.5 ± 1.8 % of control
[7]; 11.1 nM
  Capan-1 (pancreas, adenocarcinoma) cell viability (% of control): 35.3 ± 3.1 % of control
[7]; 100 nM
  Capan-1 (pancreas, adenocarcinoma) cell viability (% of control): 33.6 ± 1.1 % of control
[7]; 300 nM
  Capan-1 (pancreas, adenocarcinoma) cell viability (% of control): 34.6 ± 2.4 % of control
[8]; 3.7 nM
  EBC-1 (lung, squamous cell carcinoma) cell viability (% of control): 70.9 ± 8.3 % of control
[8]; 11.1 nM
  EBC-1 (lung, squamous cell carcinoma) cell viability (% of control): 25.3 ± 0.7 % of control
[8]; 100 nM
  EBC-1 (lung, squamous cell carcinoma) cell viability (% of control): 22.4 ± 0.5 % of control
[8]; 300 nM
  EBC-1 (lung, squamous cell carcinoma) cell viability (% of control): 23.5 ± 1.3 % of control
[9]; 3.7 nM
  MDA-MB-453 (breast, carcinoma) cell viability (% of control): 37.9 ± 3.2 % of control
[9]; 11.1 nM
  MDA-MB-453 (breast, carcinoma) cell viability (% of control): 33.5 ± 1.8 % of control
[9]; 100 nM
  MDA-MB-453 (breast, carcinoma) cell viability (% of control): 31.2 ± 2.2 % of control
[9]; 300 nM
  MDA-MB-453 (breast, carcinoma) cell viability (% of control): 30.9 ± 1.4 % of control
[10]; 3.7 nM
  Detroit 562 (pharynx, carcinoma) cell viability (% of control): 29.4 ± 4.9 % of control
[10]; 11.1 nM
  Detroit 562 (pharynx, carcinoma) cell viability (% of control): 27.8 ± 3.6 % of control
[10]; 100 nM
  Detroit 562 (pharynx, carcinoma) cell viability (% of control): 28.3 ± 3.6 % of control
[10]; 300 nM
  Detroit 562 (pharynx, carcinoma) cell viability (% of control): 31.5 ± 3.7 % of control
[11]; 3.7 nM
  MDA-MB-231 (breast, adenocarcinoma) cell viability (% of control): 82.4 ± 7.2 % of control
[11]; 11.1 nM
  MDA-MB-231 (breast, adenocarcinoma) cell viability (% of control): 59.4 ± 4.5 % of control
[11]; 100 nM
  MDA-MB-231 (breast, adenocarcinoma) cell viability (% of control): 55.9 ± 5.3 % of control
[11]; 300 nM
  MDA-MB-231 (breast, adenocarcinoma) cell viability (% of control): 54.2 ± 2.4 % of control
[12]; 3.7 nM
  PC-3 (prostate, adenocarcinoma) cell viability (% of control): 46.9 ± 4.2 % of control
[12]; 11.1 nM
  PC-3 (prostate, adenocarcinoma) cell viability (% of control): 33.9 ± 3.3 % of control
[12]; 100 nM
  PC-3 (prostate, adenocarcinoma) cell viability (% of control): 32.8 ± 3.2 % of control
[12]; 300 nM
  PC-3 (prostate, adenocarcinoma) cell viability (% of control): 32.7 ± 14.4 % of control
[13]
  IC50: 2 nM
[14]
  IC50: 3 nM
[15]
  IC50: 4 nM
[16]
  IC50: 3 nM
[17]
  IC50: < 1 nM
[18]; PANC-1, 72 h, read-out: IC50 (72 h) [nM]
  IC50: 1.31 ± 0.286 nM
[18]; PANC-1, 96 h, read-out: IC50 (96 h) [nM]
  IC50: < 0.25 nM
[19]
  IC50: 2 nM
